Measured values: patent US8980934B2, “Kinase inhibitors and method of treating cancer with same” (University Health Network, priority 2012, dated 2015)

Legend:
Type in all cases: cell-based
[1] = tested on: HCT116 colon cancer cells; assay: Cancer cell growth inhibition, Sulforhodamine B assay; conditions: Homo sapiens, HCT-116, 120 h; HCT116, 5 days culture, SRB; read-out: Cancer Cell Line GI50 Range HCT116
Description: (§1) Breast cancer cells (MDA-MB-231), colon cancer cells (HCT116) and ovarian cancer cells (PA-1) were seeded (1000 to 4000 in 80 μl per well depending on the cell growth rate) into 96 well plates 24 hours before compound overlay. Compounds were prepared as 10 mM stock solutions in 100% DMSO which were diluted with DMEM (Dulbecco's Modified Eagle's Medium) cell growth Medium (Invitrogen, Burlington, ON, Canada) containing 10% FBS (Fetal Bovine Serum) to concentrations ranging from 50 nM to 250 μM. Aliquots (20 μl) from each concentration were overlaid to 80 μl of the pre-seeded cells in the 96 well plates to make final concentrations of 10 nM to 50 μM. The cells were cultured for 5 days before the Sulforhodamine B assay (SRB) was performed to determine the compound's cell growth inhibition activity.
(§2) Sulforhodamine B (purchased from Sigma, Oakville, ON, Canada) is a water-soluble dye that binds to the basic amino acids of the cellular proteins. Thus, colorimetric measurement of the bound dye provides an estimate of the total protein mass that is related to the cell number. the cells are fixed in situ by gently aspirating off the culture media and adding 50 μl ice cold 10% Trichloroacetic Acid (TCA) per well and incubate at 4° C. for 30-60 min. The plates are washed with H2O five times and allowed to air dry for 5 min. Addition of 50 μl 0.4% (w/v) SRB solution in 1% (v/v) acetic acid to each well and incubatation for 30 min at RT completes the staining reaction. Following staining, plates are washed four times with 1% acetic acid to remove unbound dye and then allowed to air dry for 5 min. The stain is solubilized with 100 μl of 10 mM Tris pH 10.5 per well. Absorbance is read at 570 nm.
(§3) The percentage (%) of relative growth inhibition was calculated by comparing to DMSO treated only cells (100%). GI50's were determined for compounds with cytotoxic activity. The GI50 was calculated using GraphPad PRISM software (GraphPad Software, Inc., San Diego, Calif., USA). GI50 (growth inhibition) is the compound concentration that causes 50% inhibition of cell growth.
(§4) In Table 1 below, GI50 value ranges for several compound examples against breast cancer cell lines (MDA-MB-231), colon cancer cell lines (HCT116) and ovarian cancer cell lines (PA-1) are given. […] The GI50 ranges are indicated as “A,” “B,” and “C,” for values less than or equal to 0.1 μM; those greater than 0.1 μM and less than or equal to 0.5 μM; and those greater than 0.5 μM, respectively.

[2] = tested on: MDA-MB-231 breast cancer cells; assay: as above; conditions: Homo sapiens, 120 h; MDA-MB-231, 5 days culture, SRB; read-out: Cancer Cell Line GI50 Range MDA-MB-231
Description: as §1, §2, §3, §4

[3] = tested on: PA-1 ovarian cancer cells; assay: as above; conditions: 120 h; PA-1, 5 days culture, SRB; read-out: Cancer Cell Line GI50 Range PA-1
Description: as §1, §2, §3, §4

[4] = tested on: colon 12 tumor initiating cells; assay: Colon tumor-initiating cell growth inhibition, Alamar Blue assay; conditions: 216 h, colon TICs, 9 days culture, read-out: Tumor Initiating Cell Line GI50 Range colon 12
Text: (§5) Non-tissue or tissure cultured treated T-75 flask and 96-well plates were purchased from VWR. Vitamin B-27 supplement, MEM NEAA (minimum essential medium non essential amino acids), sodium pyruvate, L-glutamine, N2 supplement, penicillin-streptomycin and fungizone/amphotericin B were obtained from Invitrogen. Lipid mixture, heparin and EGF were purchased from Sigma; bFGF from BD Biosciences. Colon tumor initiating cells (TICs) were routinely maintained using non-tissue cultured treated T-75 flasks in DMEM:F12 medium containing 0.2XB-27 supplement, 4 ug/ml heparin, 1XMEM NEAA, 1Xsodium pyruvate, 1 mM glutamine, 10 pg/ul bFGF, 20 pg/ul EGF, 1×N2 supplement, lipid mixture, penicillin-streptomycin and fungizone/amphotericin B. Ovarian TICs were routinely maintained using tissue cultured treated T-75 flasks in DMEM:F12 medium containing 1XB-27 supplement, 4 ug/ml heparin, 20 pg/ul bFGF, 20 pg/ul EGF and penicillin-streptomycin.
(§6) Compounds described herein were dissolved in DMSO and further diluted in cell culture medium for GI50 determination. Colon TICs were trypsinized and seeded into non-tissue cultured treated 96-well plates with 4,000 cells/well. After 24 h, compound was added into the cell culture at different concentrations, and the final concentration of DMSO was adjusted to 0.1%. Cells were then cultured at 37° C. for 9 days. Ovarian TICs were trypsinized and seeded into tissue cultured treated 96-well plates with 1,000 cells/well. After 24 h, compound was added into the cell culture at different concentrations, and the final concentration of DMSO was adjusted to 0.1%. Cells were then cultured at 37° C. for 6 days. Cell viability was assessed by Alamar Blue assay: 10 ul of Alamar Blue was added into each well. After 4 hours incubation at 37° C., fluorescence was recorded at excitation 544 and emission 590. GI50 (Growth inhibition) was calculated using GraphPad Prism 4.0 software. Cell growth inhibition data for compounds described herein is tabulated below (Table 2). The GI50 ranges are indicated as “A,” and “B”, for values less than or equal to 0.1 μM: those greater than 0.1 μM and less than or equal to 0.5 μM, respectively.

[5] = tested on: ovarian 2393A tumor initiating cells; assay: Ovarian tumor-initiating cell growth inhibition, Alamar Blue assay; conditions: 144 h, ovarian TICs, 6 days culture, read-out: Tumor Initiating Cell Line GI50 Range ovarian 2393A
Text: as §5, §6

Structure (SMILES)	GI50 [1] [nM]	GI50 [2] [nM]	GI50 [3] [nM]	GI50 [4] [nM]	GI50 [5] [nM]
O=C(NC(c1ccccn1)C1CC1)c1ccc2[nH]nc(-c3ccc(N4CCC5(CC4)COC5)cc3)c2c1 (stereo not drawn) [Example A15, 3-(4-(2-Oxa-7-azaspiro[3.5]nonan-7-yl)phenyl)-N-(cyclopropyl(pyridin-2-yl)methyl)-1H-indazole-5-carboxamide]	≤ 100	100 to 500	≤ 100	100 to 500	100 to 500
O=C(N[C@H](c1ccccn1)C1CCCC1)c1ccc2[nH]nc(-c3ccc(N4CC5(COC5)C4)cc3)c2c1 [Example A2, (S)-3-(4-(2-oxa-6-azaspiro[3.3]heptan-6-yl)phenyl)-N-(cyclopentyl(pyridin-2-yl)methyl)-1H-indazole-5-carboxamide]	≤ 100	≤ 100	≤ 100	≤ 100	≤ 100
O=C(Nc1ccc2[nH]nc(-c3ccc(N4CC5(COC5)C4)cc3)c2c1)C(c1ccsc1)N1CCCC1 (stereo not drawn) [Example A1, N-(3-(4-(2-oxa-6-azaspiro[3.3]heptan-6-yl)phenyl)-1H-indazol-5-yl)-2-(pyrrolidin-1-yl)-2-(thiophen-3-yl)acetamide]	≤ 100	≤ 100	≤ 100	≤ 100	≤ 100
O=C(N[C@H](c1ccccn1)C1CCCC1)c1ccc2[nH]nc(-c3ccc(N4CC5(CCOCC5)C4)cc3)c2c1 [Example A19, (S)-3-(4-(7-Oxa-2-azaspiro[3.5]nonan-2-yl)phenyl)-N-(cyclopentyl(pyridin-2-yl)methyl)-1H-indazole-5-carboxamide]	≤ 100	≤ 100	≤ 100	≤ 100	100 to 500
O=C(N[C@@H](c1ccccn1)C1CC1)c1ccc2[nH]nc(-c3ccc(N4CC5(COC5)C4)cc3)c2c1 [Example A6, (R)-3-(4-(2-oxa-6-azaspiro[3.3]heptan-6-yl)phenyl)-N-(cyclopropyl(pyridin-2-yl)methyl)-1H-indazole-5-carboxamide]	≤ 100	100 to 500	≤ 100	100 to 500	100 to 500
O=C(N[C@H](c1ccccc1)C1CC1)c1ccc2[nH]nc(-c3ccc(N4CC5(COC5)C4)cc3)c2c1 [Example A10, 3-(4-(2-Oxa-6-azaspiro[3.3]heptan-6-yl)phenyl)-N-((S)-cyclopropyl(phenyl)methyl)-1H-indazole-5-carboxamide]	≤ 100	100 to 500	≤ 100	≤ 100	100 to 500
O=C(NC(c1ccccn1)C1CC1)c1ccc2[nH]nc(-c3ccc(N4CC5(COC5)C4)cc3)c2c1 (stereo not drawn) [Example A4, 3-(4-(2-Oxa-6-azaspiro[3.3]heptan-6-yl)phenyl)-N-(cyclopropyl(pyridin-2-yl)methyl)-1H-indazole-5-carboxamide]	≤ 100	≤ 100	≤ 100	100 to 500	≤ 100
O=C(N[C@@H](c1ccccn1)C1CCCC1)c1ccc2[nH]nc(-c3ccc(N4CC5(COC5)C4)cc3)c2c1 [Example A8, (R)-3-(4-(2-Oxa-6-azaspiro[3.3]heptan-6-yl)phenyl)-N-(cyclopentyl(pyridin-2-yl)methyl)-1H-indazole-5-carboxamide]	≤ 100	≤ 100	≤ 100	≤ 100	≤ 100
O=C(N[C@H](c1ccccn1)C1CCCC1)c1ccc2[nH]nc(-c3ccc(N4CC5(CCO5)C4)cc3)c2c1 [Example A20, (S)-3-(4-(1-oxa-6-azaspiro[3.3]heptan-6-yl)phenyl)-N-(cyclopentyl(pyridin-2-yl)methyl)-1H-indazole-5-carboxamide]	≤ 100	≤ 100	≤ 100	≤ 100	≤ 100
O=C(NC(c1ccccn1)C1CCCC1)c1ccc2[nH]nc(-c3ccc(N4CC5(COC5)C4)cc3)c2c1 (stereo not drawn) [Example A7, 3-(4-(2-Oxa-6-azaspiro[3.3]heptan-6-yl)phenyl)-N-(cyclopentyl(pyridin-2-yl)methyl)-1H-indazole-5-carboxamide]	≤ 100	≤ 100	≤ 100	≤ 100	≤ 100
CC(C)[C@H](NC(=O)c1ccc2[nH]nc(-c3ccc(N4CC5(COC5)C4)cc3)c2c1)c1ccccc1Cl [Example A12, 3-(4-(2-Oxa-6-azaspiro[3.3]heptan-6-yl)phenyl)-N-((S)-1-(2-chlorophenyl)-2-methylpropyl)-1H-indazole-5-carboxamide]	≤ 100	≤ 100	≤ 100	≤ 100	≤ 100
CC(C)[C@H](NC(=O)c1ccc2[nH]nc(-c3ccc(N4CC5(CCO5)C4)cc3)c2c1)c1ccccc1Cl [Example A23, (S)-3-(4-(1-Oxa-6-azaspiro[3.3]heptan-6-yl)phenyl)-N-(1-(2-chlorophenyl)-2-methylpropyl)-1H-indazole-5-carboxamide]	≤ 100	≤ 100	≤ 100	≤ 100	≤ 100
O=C(N[C@H](c1ccccn1)C1CC1)c1ccc2[nH]nc(-c3ccc(N4CC5(CCOCC5)C4)cc3)c2c1 [Example A18, (S)-3-(4-(7-Oxa-2-azaspiro[3.5]nonan-2-yl)phenyl)-N-(cyclopropyl(pyridin-2-yl)methyl)-1H-indazole-5-carboxamide]	≤ 100	≤ 100	≤ 100	≤ 100	100 to 500
O=C(N[C@H](c1ccccn1)C1CC1)c1ccc2[nH]nc(-c3ccc(N4CC5(COC5)C4)cc3)c2c1 [Example A5, (S)-3-(4-(2-Oxa-6-azaspiro[3.3]heptan-6-yl)phenyl)-N-(cyclopropyl(pyridin-2-yl)methyl)-1H-indazole-5-carboxamide]	≤ 100	≤ 100	≤ 100	100 to 500	≤ 100
CC(C)C(NC(=O)c1ccc2[nH]nc(-c3ccc(N4CC5(COC5)C4)cc3)c2c1)c1ccccc1Cl (stereo not drawn) [Example A11, 3-(4-(2-Oxa-6-azaspiro[3.3]heptan-6-yl)phenyl)-N-(1-(2-chlorophenyl)-2-methylpropyl)-1H-indazole-5-carboxamide]	≤ 100	≤ 100	≤ 100	≤ 100	≤ 100
